Source: patent publication US6521407B1, “Methods for determining chemosensitivity of cancer cells based upon expression of negative and positive signal transduction factors” (TheRyte Limited, priority 1998, dated 2003)

Key:
Assay type in all cases: cell-based, human
HT29 = assay: Clonogenic cell survival assay (D0.1), HT29; conditions: HT29, p53 mutant, undetectable p21; for Absolute D0.1: dose reducing clonogenic survival to 10% of control, 14 days exposure
Procedure: (§1) The growth characteristics clonogenic assay procedures of the 11 human in vitro cell lines used in this analysis have already been reported e.g. in Britten R. A. and Warenius H., Eur. J. Canc. 29A, 1315-1320 (1993). The cell lines are listed, with their histological classification in Table 4. All are well established; many having been growing in vitro for several years. Cell lines were either donations or purchased by our laboratories. On receipt all were grown for 5 passages to provide sufficient cells for batch storage in liquid nitrogen. During this period contamination was excluded by at least one passage in antibiotic free medium and mycoplasma testing was carried out on all lines. For clonogenic assays, cells were taken from a designated primary liquid nitrogen batch and grown for 3-6 passages until there were sufficient well-growing cells. Further batches from these cells were frozen in liquid nitrogen. Cells were routinely maintained in DMEM medium. All lines were supplemented with 10% heat-inactivated foetal calf serum (HIFCS). […] The D0.1 values were obtained by several independent clonogenic assays and the data fitted by linear regression analysis. The clonogenic assays were repeated until statistically satisfactory fits were achieved on linear regression. The D0.1 values were obtained by interpolation of the linear regression lines. The cytotoxic drug D0.1 values have been normalised and expressed as relative D0.1 values, to enable the relative sensitivity of each cell to each of the drugs to be compared.
(§2) In order to assay CDDP sensitivity 10^2-10^5 cells were plated in 3 ml of Ham's F12 medium supplemented with 10% FCS in 6 well plates and incubated at 37° C. in an atmosphere of 5% CO2 for 8 hours. […] The medium was then removed, the cells were fixed in 70% ethanol and stained with 10% Giemsa and colonies of >100 cells counted. […] CDDP cell survival was determined at the 10% clonogenic cell survival level (D0.1) by interpolation of the fitted regression curve. […]

OAW42 = assay: Clonogenic cell survival assay (D0.1), OAW42; conditions: OAW42, p53 wild-type, detectable p21
Procedure: (§3) The growth characteristics clonogenic assay procedures of the 11 human in vitro cell lines used in this analysis have already been reported e.g. in Britten R. A. and Warenius H., Eur. J. Canc. 29A, 1315-1320 (1993). The cell lines are listed, with their histological classification in Table 4. All are well established; many having been growing in vitro for several years. Cell lines were either donations or purchased by our laboratories. On receipt all were grown for 5 passages to provide sufficient cells for batch storage in liquid nitrogen. During this period contamination was excluded by at least one passage in antibiotic free medium and mycoplasma testing was carried out on all lines. For clonogenic assays, cells were taken from a designated primary liquid nitrogen batch and grown for 3-6 passages until there were sufficient well-growing cells. Further batches from these cells were frozen in liquid nitrogen. Cells were routinely maintained in DMEM medium. All lines were supplemented with 10% heat-inactivated foetal calf serum (HIFCS). […]
(§4) In order to assay CDDP sensitivity 10^2-10^5 cells were plated in 3 ml of Ham's F12 medium supplemented with 10% FCS in 6 well plates and incubated at 37° C. in an atmosphere of 5% CO2 for 8 hours. […] The medium was then removed, the cells were fixed in 70% ethanol and stained with 10% Giemsa and colonies of >100 cells counted.

MGHU1 = assay: Clonogenic cell survival assay (D0.1), MGHU1; conditions: MGHU1, p53 wild-type, detectable p21; for Absolute D0.1: dose reducing clonogenic survival to 10% of control, 14 days exposure
Procedure: as §1, §2

2780 = assay: Clonogenic cell survival assay (D0.1), 2780; conditions: 2780, p53 wild-type, detectable p21; for Absolute D0.1: dose reducing clonogenic survival to 10% of control, 14 days exposure
Procedure: as §1, §2

RT112 = assay: Clonogenic cell survival assay (D0.1), RT112; conditions: RT112, p53 mutant, undetectable p21; for Absolute D0.1: dose reducing clonogenic survival to 10% of control, 14 days exposure
Procedure: as §1, §2

CORL23 = assay: Clonogenic cell survival assay (D0.1), CORL23; conditions: CORL23, p53 wild-type, detectable p21; for Absolute D0.1: dose reducing clonogenic survival to 10% of control, 14 days exposure
Procedure: as §1, §2

I407 = assay: Clonogenic cell survival assay (D0.1), I407; conditions: 1407 (I407), p53 wild-type, detectable p21; for Absolute D0.1: dose reducing clonogenic survival to 10% of control, 14 days exposure
Procedure: as §1, §2

HRT18 = assay: Clonogenic cell survival assay (D0.1), HRT18; conditions: HRT18, p53 wild-type, detectable p21; for Absolute D0.1: dose reducing clonogenic survival to 10% of control, 14 days exposure
Procedure: as §1, §2

MEL2 = assay: Clonogenic cell survival assay (D0.1), MEL2; conditions: MEL2, p53 mutant, undetectable p21; for Absolute D0.1: dose reducing clonogenic survival to 10% of control, 14 days exposure
Procedure: as §1, §2

A431 = assay: Clonogenic cell survival assay (D0.1), A431; conditions: A431, p53 mutant, undetectable p21; for Absolute D0.1: dose reducing clonogenic survival to 10% of control, 14 days exposure
Procedure: as §1, §2

MOR = assay: Clonogenic cell survival assay (D0.1), MOR; conditions: p53 mutant
Procedure: as §3, §4

[1] = absolute D0.1 divided by mean D0.1 of the drug

Compound	Absolute D0.1 (HT29)	Absolute D0.1 (MGHU1)	Absolute D0.1 2780	Absolute D0.1 (RT112)	Absolute D0.1 (CORL23)	Absolute D0.1 (I407)	Absolute D0.1 (HRT18)	Absolute D0.1 (MEL2)	Absolute D0.1 (A431)	also measured
N.N.[Cl][Pt][Cl] [CDDP, cis-diamminedichloroplatinum]	0.632	0.4494	0.255	0.237	0.338	0.06	0.864	0.457	0.306	Relative D0.1 (HT29; [1]): 1.58; Relative D0.1 (OAW42; [1]): 0.27; Absolute D0.1 (OAW42; dose reducing clonogenic survival to 10% of control, 14 days exposure): 0.108; Relative D0.1 (MGHU1; [1]): 1.235; Relative D0.1 2780; [1]: 0.637; Relative D0.1 (RT112; [1]): 0.593; Relative D0.1 (CORL23; [1]): 0.845; Relative D0.1 (I407; [1]): 0.15; Relative D0.1 (HRT18; [1]): 2.16; Relative D0.1 (MEL2; [1]): 1.143; Relative D0.1 (A431; [1]): 0.765; Relative D0.1 (MOR; undetectable p21, absolute D0.1 divided by mean D0.1 of the drug): 1.573; Absolute D0.1 (MOR; undetectable p21, dose reducing clonogenic survival to 10% of control, 14 days exposure): 0.629
CC(=O)O[C@H]1C(=O)[C@@]2(C)[C@H]([C@H](OC(=O)c3ccccc3)[C@]3(O)C[C@H](OC(=O)[C@H](O)[C@@H](NC(=O)c4ccccc4)c4ccccc4)C(C)=C1C3(C)C)[C@]1(OC(C)=O)CO[C@@H]1C[C@@H]2O [Paclitaxel (TAXOL), Paclitaxel]	1.106	1.144	2.113	1.523	0.497	1.504	10.415	0.57	0.823	–
